Measurements from patent US20250049841A1 (priority 2021, published 2025).
≈ marks a conversion by molar mass, not a printed value. Where “and” joins values, the source holds several entries; their conditions need not be identical. Equal entries are not always repeated. Where two headings read alike, the source gives them in different places.

Legend:
[1] = tested on: SARS-CoV-2 USA_WA1/2020 strain
[2] = tested on: SARS-CoV-2 USA_WA1/2020 strain; remark: listed apart in the source
[3] = tested on: SARS-CoV-2 USA_WA1/2020 strain; conditions: hamster, in vivo
[4] = tested on: normal, human-derived tracheal/bronchial epithelial (TBE) cells
Method: (§1) Cell Culture: The EpiAirway™ Model consists of normal, human-derived tracheal/bronchial epithelial (TBE) cells which have been cultured to form a multi layered, highly differentiated model which closely resembles the epithelial tissue of the respiratory tract.
(§2) The TBE cells were grown on 6 mm mesh disks in transwell inserts. […] The cells have unique properties in forming layers, the apical side of which is exposed only to air and that creates a mucin layer. Upon arrival, the cell transwell inserts were immediately transferred to individual wells of a 6-well plate according to manufacturer's instructions, and 1 mL of MatTek's proprietary culture medium (AIR-100-MM) was added to the basolateral side, whereas the apical side was exposed to a humidified 5% CO2 environment. The TBE cells were cultured at 37° C. for one day before the start of the experiment. After the 24 h equilibration period, the mucin layer, secreted from the apical side of the cells, was removed by washing with 400 μL pre-warmed 30 mM HEPES buffered saline solution 3X. Culture medium was replenished following the wash steps.
(§3) Experimental design: Each 2× compound treatment (120 L) and virus (120 μL) was applied to the apical side, and 1× compound treatment only was applied to the basal side (1 mL), for a 2 h incubation. […]

[5] = tested on: normal, human-derived tracheal/bronchial epithelial (TBE) cells; remark: listed apart in the source
Method: (§4) The amount of formazan is directly proportional to the number of living cells and the resulting colored solution is quantified by measuring absorbance at 450 nanometers using a multi-well spectrophotometer. Drug concentrations of 2 mg/ml and 1 mg/ml were tested in duplicate wells, and a drug concentration of 0.5 mg/ml was tested in singlet wells. On day 3 (H1N1) or day 6 (RSV), the apical side was washed one time with 400 μL pre-warmed PBS. The CCK-8 solution was added (200 L) to the apical side and incubated at 37° C. for 2 hours. The formazan (100 l) was placed into a 96-well plate and the 450 nm absorbance was recorded. Percent toxicity values were calculated as a percentage of the cell control test wells (no drug treatment) and reported as the 50% cell cytotoxic concentration (CC50) of compound (no virus). Tissues were also observed via microscopy to assess cytotoxicity.

[6] = tested on: SARS-CoV-2 (strain USA-WA1/2020); assay: microbe, parasite or virus in culture; format: cell-based, human; conditions: Severe acute respiratory syndrome coronavirus 2, 120 h
[7] = tested on: normal, human-derived tracheal/bronchial epithelial (TBE) cells; assay: Toxicity of test compounds in the TBE tissue model (Example 1); conditions: any of the test compound concentrations
Method: as §1, §2, §3

in vitro = conditions: human
Method: as §4

[8] = tested on: Respiratory syncytial virus (RSV-A2); assay: microbe, parasite or virus in culture; conditions: human respiratory syncytial virus, read-out: EC90 (VYR 90% effective concentration)
[9] = tested on: Respiratory syncytial virus (RSV-A2); conditions: for SI = CC50/EC90: RSV-A2
[10] = tested on: Influenza A/California/7/2009 (H1N1); assay: microbe, parasite or virus in culture; conditions: H1N1, in Homo sapiens, read-out: EC90 (VYR 90% effective concentration)
[11] = tested on: Influenza A/California/7/2009 (H1N1); conditions: fresh drug on days 1 and 2; for Log10 CCID50 virus per 0.2 mL: H1N1, day 3
[12] = 200 mg/kg/d b.i.d. PO, individual animals
[13] = 500 mg/kg/d b.i.d. PO, individual animals

With `CC(C)C(=O)OC[C@H]1O[C@@H](n2ccc(NO)nc2=O)[C@H](O)[C@@H]1O` [EIDD-2801] the “effect on lung weights” value ([1]; 200 mg/kg/d PO) was “not significantly affected”, the “effect on weight loss (percent initial body weight)” value ([1]; 200 mg/kg/d PO, P<0.01 vs placebo) was “prevented weight loss” and the “effect on oropharyngeal swab virus titers” value ([1]; 200 mg/kg/d PO, any day post-infection) was “did not reduce”. For the same compound, the “effect on lung virus titers” value ([1]; 200 mg/kg/d PO, day 6 post-infection, P<0.0001 vs placebo) was “reduced lung virus titers”, the “effect on nasal tissue virus titers” value ([1]; 200 mg/kg/d PO, vs placebo) was “did not significantly reduce” and the “Oropharyngeal swab Virus Titer, Day Post-Infection 5” value [1, 12] was 2.0 CCID50/mL (Log10) and <0.7 CCID50/mL (Log10) (3×) and 1.7 CCID50/mL (Log10). The “Oropharyngeal swab Virus Titer, Day Post-Infection 6” value [1, 12] was <0.7 CCID50/mL (Log10), the “Virus Titer, Lung tissue, Day 6” value [1, 12] was <0.7 CCID50/mL (Log10) and the “reduction in lung virus titers, day 3 post-infection” value ([2]; 500 mg/kg/d PO) was “one”. For the same compound, the “effect on nasal tissue virus titers” value ([2]; 500 mg/kg/d PO, FIG. 21, once daily comparison) was “did not significantly reduce”, the “effect on lung weights” value ([2]; 500 mg/kg/d PO, FIG. 22) was “did not significantly reduce” and the “effect on nasal tissue virus titers, day 3 post-infection” value ([2]; 500 mg/kg/d PO, FIG. 25, twice daily comparison, P<0.01) was “significantly reduced”. For the same compound, the “effect on lung weights, Day 6” value ([2]; 500 mg/kg/d PO, FIG. 26) was “significantly affected”, the “effect on lung virus titers, day 3 post-infection” value ([2]; 500 mg/kg/d PO, P<0.01 vs placebo) was “significantly reduced” and the “Virus Titer, Lung tissue, Day 6” value [2, 13] was <0.7 CCID50/mL (Log10). The “Virus Titer, Nasal tissue, Day 6” value [2, 13] was <0.7 CCID50/mL (Log10) (4×) and 1.7 CCID50/mL (Log10).

For berdazimer sodium, the premature deaths [3] was “no premature deaths were observed”, the toxicity [4] was “No toxicity was observed” and the “cytotoxicity, tissues observed under the microscope” value [5] was “no overt cytotoxicity”. The adverse events ([1]; hamster, in vivo, 2 mg/kg/day) was “No adverse events were observed” and the deaths ([2]; hamster, in vivo) was “two of the ten animals”.

`CCC(CC)COC(=O)[C@H](C)N[P@](=O)(OC[C@H]1O[C@@](C#N)(c2ccc3c(N)ncnn23)[C@H](O)[C@@H]1O)Oc1ccccc1` [Remdesivir] gave an EC90 ([6]; read-out: EC90 (Titer 1)) of 0.0065 µg/mL (≈ 0.0108 µM) and an EC90 ([6]; read-out: EC90 (Titer Avg.)) of 0.0065 µg/mL (≈ 0.0108 µM).

For `CO[Si](CCCN(C)[N+]([O-])=NO)(OC)OC` [MAP3-NONOate, N, N-methylaminopropyl diazeniumdiolate trimethoxysilane], the toxicity [7] was “No toxicity was observed”.

In the case of `NC(=O)c1ncn([C@@H]2O[C@H](CO)[C@@H](O)[C@H]2O)n1` [Ribavirin], the CC50 (in vitro) is reported as over 100 µg/mL, the CC50 at 6 days (in vitro) is reported as over 100 µg/mL and the EC90 [8] is reported as 5.12 µg/mL (≈ 21 µM). The “EC90 (VYR 90% effective concentration)” value [9] was 4.6 µg/mL (≈ 18.8 µM), the “SI = CC50/EC90” value ([9]; fresh drug on days 1, 2, and 5) was over 19.54 and the “SI = CC50/EC90” value ([9]; fresh drug on days 1-5) was over 21.7. For the same compound, the EC90 [10] was 1.89 µg/mL (≈ 7.74 µM), the “Log10 CCID50 virus per 0.2 mL” value ([11]; concentration 1 μg/ml) was 6.50 Log10 CCID50 virus per 0.2 mL and the “Log10 CCID50 virus per 0.2 mL” value ([11]; concentration 10 μg/ml) was 4.00 Log10 CCID50 virus per 0.2 mL. The “Log10 CCID50 virus per 0.2 mL” value ([11]; concentration 100 μg/ml) was 2.67 Log10 CCID50 virus per 0.2 mL and the “SI = CC50/EC90” value ([11]; H1N1) was over 52.9.
